Measured values reported in US20070049564A1 (Wyeth, priority 2005, published 2007).
≈ marks a conversion by molar mass, not a printed value. Like-named read-outs stand apart in the source and are kept apart here.

Legend:
[1] = system: E. coli GC 2236; assay: MIC, broth microdilution; details: Escherichia coli
[2] = system: E. coli GC 2231; assay: MIC, broth microdilution; details: Escherichia coli
[3] = system: E. coli GC 2232; assay: MIC, broth microdilution; details: Escherichia coli
[4] = system: E. coli GC 2233; assay: MIC, broth microdilution; details: Escherichia coli
[5] = system: E. coli GC 2234; assay: MIC, broth microdilution; details: Escherichia coli
[6] = system: E. coli GC 2270; assay: MIC, broth microdilution; details: Escherichia coli
[7] = system: E. coli GC 2271; assay: MIC, broth microdilution; details: Escherichia coli
[8] = system: E. coli GC 3226; assay: MIC, broth microdilution; details: Escherichia coli
[9] = system: E. coli GC 2203; assay: MIC, broth microdilution; details: Escherichia coli
[10] = system: P. aeruginosa GC 2214; assay: MIC, broth microdilution; details: Pseudomonas aeruginosa
[11] = system: S. aureus GC 6466; assay: MIC, broth microdilution; details: Staphylococcus aureus
[12] = system: S. aureus GC 2216; assay: MIC, broth microdilution; details: Staphylococcus aureus
[13] = system: S. aureus GC 6335; assay: MIC, broth microdilution; details: Staphylococcus aureus
[14] = system: S. aureus GC 6469; assay: MIC, broth microdilution; details: Staphylococcus aureus
[15] = system: E. faecalis GC 2265; assay: MIC, broth microdilution; details: Enterococcus faecalis
[16] = system: E. faecium GC 4556; assay: MIC, broth microdilution; details: Enterococcus faecium
[17] = system: E. faecium GC 2243; assay: MIC, broth microdilution; details: Enterococcus faecium
[18] = system: S. pyogenes GC 4563; assay: MIC, broth microdilution; details: Streptococcus pyogenes
[19] = system: E. coli; assay: Range of MIC for E. coli strains; details: Escherichia coli
[20] = system: Staph.; assay: Range of MIC for Staph. strains, including MRSA; details: Staphylococcus aureus

MIC ([1]; GC2236, read-out: MINIMAL INHIBITORY CONCENTRATION MIC, pre-incubated in Human Serum): 4 µg/mL (≈ 5.29 µM) | MIC ([1]; GC2236, read-out: MINIMAL INHIBITORY CONCENTRATION MIC, pre-incubated in Mouse Serum): 0.5 µg/mL (≈ 0.662 µM) | MIC ([1]; GC2236, read-out: MINIMAL INHIBITORY CONCENTRATION MIC, pre-incubated in Water): 64 µg/mL (≈ 84.7 µM) | MIC ([2]; GC2231, read-out: MINIMAL INHIBITORY CONCENTRATION MIC, pre-incubated in Human Serum): 4 µg/mL (≈ 5.29 µM) | MIC ([2]; GC2231, read-out: MINIMAL INHIBITORY CONCENTRATION MIC, pre-incubated in Mouse Serum): 0.5 µg/mL (≈ 0.662 µM) | MIC ([2]; GC2231, read-out: MINIMAL INHIBITORY CONCENTRATION MIC, pre-incubated in Water): 64 µg/mL (≈ 84.7 µM) | MIC ([3]; GC2232, read-out: MINIMAL INHIBITORY CONCENTRATION MIC, pre-incubated in Human Serum): 4 µg/mL (≈ 5.29 µM) | MIC ([3]; GC2232, read-out: MINIMAL INHIBITORY CONCENTRATION MIC, pre-incubated in Mouse Serum): 0.5 µg/mL (≈ 0.662 µM) | MIC ([3]; GC2232, read-out: MINIMAL INHIBITORY CONCENTRATION MIC, pre-incubated in Water): 64 µg/mL (≈ 84.7 µM) | MIC ([4]; GC2233, read-out: MINIMAL INHIBITORY CONCENTRATION MIC, pre-incubated in Human Serum): 4 µg/mL (≈ 5.29 µM) | MIC ([4]; GC2233, read-out: MINIMAL INHIBITORY CONCENTRATION MIC, pre-incubated in Mouse Serum): 0.5 µg/mL (≈ 0.662 µM) | MIC ([4]; GC2233, read-out: MINIMAL INHIBITORY CONCENTRATION MIC, pre-incubated in Water): 64 µg/mL (≈ 84.7 µM) | MIC ([5]; GC2234, read-out: MINIMAL INHIBITORY CONCENTRATION MIC, pre-incubated in Human Serum): 4 µg/mL (≈ 5.29 µM) | MIC ([5]; GC2234, read-out: MINIMAL INHIBITORY CONCENTRATION MIC, pre-incubated in Mouse Serum): 0.5 µg/mL (≈ 0.662 µM) | MIC ([5]; GC2234, read-out: MINIMAL INHIBITORY CONCENTRATION MIC, pre-incubated in Water): 64 µg/mL (≈ 84.7 µM) | MIC ([6]; GC2270, read-out: MINIMAL INHIBITORY CONCENTRATION MIC, pre-incubated in Human Serum): 4 µg/mL (≈ 5.29 µM) | MIC ([6]; GC2270, read-out: MINIMAL INHIBITORY CONCENTRATION MIC, pre-incubated in Mouse Serum): 0.5 µg/mL (≈ 0.662 µM) | MIC ([6]; GC2270, read-out: MINIMAL INHIBITORY CONCENTRATION MIC, pre-incubated in Water): > 64 µg/mL | MIC ([7]; GC2271, read-out: MINIMAL INHIBITORY CONCENTRATION MIC, pre-incubated in Human Serum): 4 µg/mL (≈ 5.29 µM) | MIC ([7]; GC2271, read-out: MINIMAL INHIBITORY CONCENTRATION MIC, pre-incubated in Mouse Serum): 0.5 µg/mL (≈ 0.662 µM) | MIC ([7]; GC2271, read-out: MINIMAL INHIBITORY CONCENTRATION MIC, pre-incubated in Water): 64 µg/mL (≈ 84.7 µM) | MIC ([8]; GC3226, read-out: MINIMAL INHIBITORY CONCENTRATION MIC, pre-incubated in Human Serum): 16 µg/mL (≈ 21.2 µM) | MIC ([8]; GC3226, read-out: MINIMAL INHIBITORY CONCENTRATION MIC, pre-incubated in Mouse Serum): 1 µg/mL (≈ 1.32 µM) | MIC ([8]; GC3226, read-out: MINIMAL INHIBITORY CONCENTRATION MIC, pre-incubated in Water): > 64 µg/mL | MIC ([9]; GC2203, read-out: MINIMAL INHIBITORY CONCENTRATION MIC, pre-incubated in Human Serum): 8 µg/mL (≈ 10.6 µM) | MIC ([9]; GC2203, read-out: MINIMAL INHIBITORY CONCENTRATION MIC, pre-incubated in Mouse Serum): 0.5 µg/mL (≈ 0.662 µM) | MIC ([9]; GC2203, read-out: MINIMAL INHIBITORY CONCENTRATION MIC, pre-incubated in Water): > 64 µg/mL | MIC ([10]; GC2214, read-out: MINIMAL INHIBITORY CONCENTRATION MIC, pre-incubated in Human Serum): > 64 µg/mL | MIC ([10]; GC2214, read-out: MINIMAL INHIBITORY CONCENTRATION MIC, pre-incubated in Mouse Serum): 16 µg/mL (≈ 21.2 µM) | MIC ([10]; GC2214, read-out: MINIMAL INHIBITORY CONCENTRATION MIC, pre-incubated in Water): > 64 µg/mL | MIC ([11]; GC6466, read-out: MINIMAL INHIBITORY CONCENTRATION MIC, pre-incubated in Human Serum): 0.25 µg/mL (≈ 0.331 µM) | MIC ([11]; GC6466, read-out: MINIMAL INHIBITORY CONCENTRATION MIC, pre-incubated in Mouse Serum): 0.25 µg/mL (≈ 0.331 µM) | MIC ([11]; GC6466, read-out: MINIMAL INHIBITORY CONCENTRATION MIC, pre-incubated in Water): 0.25 µg/mL (≈ 0.331 µM) | MIC ([12]; GC2216, read-out: MINIMAL INHIBITORY CONCENTRATION MIC, pre-incubated in Human Serum): 0.5 µg/mL (≈ 0.662 µM) | MIC ([12]; GC2216, read-out: MINIMAL INHIBITORY CONCENTRATION MIC, pre-incubated in Mouse Serum): 0.5 µg/mL (≈ 0.662 µM) | MIC ([12]; GC2216, read-out: MINIMAL INHIBITORY CONCENTRATION MIC, pre-incubated in Water): 1 µg/mL (≈ 1.32 µM) | MIC ([13]; GC6335, read-out: MINIMAL INHIBITORY CONCENTRATION MIC, pre-incubated in Human Serum): 0.5 µg/mL (≈ 0.662 µM) | MIC ([13]; GC6335, read-out: MINIMAL INHIBITORY CONCENTRATION MIC, pre-incubated in Mouse Serum): 1 µg/mL (≈ 1.32 µM) | MIC ([13]; GC6335, read-out: MINIMAL INHIBITORY CONCENTRATION MIC, pre-incubated in Water): 1 µg/mL (≈ 1.32 µM) | MIC ([14]; GC6469, read-out: MINIMAL INHIBITORY CONCENTRATION MIC, pre-incubated in Human Serum): 0.5 µg/mL (≈ 0.662 µM) | MIC ([14]; GC6469, read-out: MINIMAL INHIBITORY CONCENTRATION MIC, pre-incubated in Mouse Serum): 1 µg/mL (≈ 1.32 µM) | MIC ([14]; GC6469, read-out: MINIMAL INHIBITORY CONCENTRATION MIC, pre-incubated in Water): 1 µg/mL (≈ 1.32 µM) | MIC ([15]; GC2265, read-out: MINIMAL INHIBITORY CONCENTRATION MIC, pre-incubated in Human Serum): 1 µg/mL (≈ 1.32 µM) | MIC ([15]; GC2265, read-out: MINIMAL INHIBITORY CONCENTRATION MIC, pre-incubated in Mouse Serum): 0.5 µg/mL (≈ 0.662 µM) | MIC ([15]; GC2265, read-out: MINIMAL INHIBITORY CONCENTRATION MIC, pre-incubated in Water): 2 µg/mL (≈ 2.65 µM) | MIC ([16]; GC4556, read-out: MINIMAL INHIBITORY CONCENTRATION MIC, pre-incubated in Human Serum): 1 µg/mL (≈ 1.32 µM) | MIC ([16]; GC4556, read-out: MINIMAL INHIBITORY CONCENTRATION MIC, pre-incubated in Mouse Serum): 0.5 µg/mL (≈ 0.662 µM) | MIC ([16]; GC4556, read-out: MINIMAL INHIBITORY CONCENTRATION MIC, pre-incubated in Water): 1 µg/mL (≈ 1.32 µM) | MIC ([17]; GC2243, read-out: MINIMAL INHIBITORY CONCENTRATION MIC, pre-incubated in Human Serum): 0.25 µg/mL (≈ 0.331 µM) | MIC ([17]; GC2243, read-out: MINIMAL INHIBITORY CONCENTRATION MIC, pre-incubated in Mouse Serum): 0.25 µg/mL (≈ 0.331 µM) | MIC ([17]; GC2243, read-out: MINIMAL INHIBITORY CONCENTRATION MIC, pre-incubated in Water): 0.5 µg/mL (≈ 0.662 µM) | MIC ([18]; GC4563, read-out: MINIMAL INHIBITORY CONCENTRATION MIC, pre-incubated in Human Serum): 0.25 µg/mL (≈ 0.331 µM) | MIC ([18]; GC4563, read-out: MINIMAL INHIBITORY CONCENTRATION MIC, pre-incubated in Mouse Serum): 0.12 µg/mL (≈ 0.159 µM) | MIC ([18]; GC4563, read-out: MINIMAL INHIBITORY CONCENTRATION MIC, pre-incubated in Water): 0.25 µg/mL (≈ 0.331 µM) | MIC ([19]; 20 h, read-out: Range of MIC, E. coli (Mouse Serum)): 0.5 to 2 µg/mL (≈ 0.662 to 2.65 µM) | MIC ([19]; read-out: Minimum inhibitory concentration (MIC), E. coli (Human Serum)): 4 to 16 µg/mL (≈ 5.29 to 21.2 µM) | MIC ([20]; MRSA, read-out: Range of MIC, Staph (Mouse Serum)): 0.25 to 1 µg/mL (≈ 0.331 to 1.32 µM) | MIC ([20]; MRSA, read-out: Range of MIC, Staph (Water)): 0.25 to 2 µg/mL (≈ 0.331 to 2.65 µM) | MIC ([20]; read-out: Minimum inhibitory concentration (MIC), Staph (Human Serum)): 0.25 to 1 µg/mL (≈ 0.331 to 1.32 µM) | MIC ([20]; read-out: Minimum inhibitory concentration (MIC), Staph (Water)): 0.25 to 2 µg/mL (≈ 0.331 to 2.65 µM)
Structure (SMILES): CN(C)c1cc(NC(=O)CN(C(=O)OCOC(=O)C2CCCC2)C(C)(C)C)c(O)c2c1C[C@H]1C[C@H]3[C@H](N(C)C)C(O)=C(C(N)=O)C(=O)[C@@]3(O)C(O)=C1C2=O [Example 46, ({[(2-{[(5aR,6aS,7S,10aS)-9-(aminocarbonyl)-4,7-bis(dimethylamino)-1,8,10a,11-tetrahydroxy-10,12-dioxo-5,5a,6,6a,7,10,10a,12-octahydrotetracen-2-yl]amino}-2-oxoethyl)(tert-butyl)amino]carbonyl}oxy)methyl cyclopentanecarboxylate]
